A word on the IC50: it is the concentration needed to halve the response being measured.

The source of these data is PubChem BioAssay AID1645866 (Buhrlage Lab, Dana-Farber Cancer Institute and Novartis …, 2021).

The source made the active and inactive calls.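 How the source made its calls: active means in confirmatory dose-response testing, peak deubiquitinase inhibition of 30% or more; inactive means the rest.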

The target of the assay is Ubiquitin carboxyl-terminal hydrolase 28 (Homo sapiens) (UniProt Q96RU2). The experiment in a line: Concentration-response biochemical assay confirming initial hits as inhibitors of ubiquitin-specific protease 28 (AID 1645866). Particulars: purified USP28, ubiquitin-rhodamine fluorescence, 30 min.
Sequence of Ubiquitin carboxyl-terminal hydrolase 28 (Homo sapiens) (Q96RU2 whole entry, looked up): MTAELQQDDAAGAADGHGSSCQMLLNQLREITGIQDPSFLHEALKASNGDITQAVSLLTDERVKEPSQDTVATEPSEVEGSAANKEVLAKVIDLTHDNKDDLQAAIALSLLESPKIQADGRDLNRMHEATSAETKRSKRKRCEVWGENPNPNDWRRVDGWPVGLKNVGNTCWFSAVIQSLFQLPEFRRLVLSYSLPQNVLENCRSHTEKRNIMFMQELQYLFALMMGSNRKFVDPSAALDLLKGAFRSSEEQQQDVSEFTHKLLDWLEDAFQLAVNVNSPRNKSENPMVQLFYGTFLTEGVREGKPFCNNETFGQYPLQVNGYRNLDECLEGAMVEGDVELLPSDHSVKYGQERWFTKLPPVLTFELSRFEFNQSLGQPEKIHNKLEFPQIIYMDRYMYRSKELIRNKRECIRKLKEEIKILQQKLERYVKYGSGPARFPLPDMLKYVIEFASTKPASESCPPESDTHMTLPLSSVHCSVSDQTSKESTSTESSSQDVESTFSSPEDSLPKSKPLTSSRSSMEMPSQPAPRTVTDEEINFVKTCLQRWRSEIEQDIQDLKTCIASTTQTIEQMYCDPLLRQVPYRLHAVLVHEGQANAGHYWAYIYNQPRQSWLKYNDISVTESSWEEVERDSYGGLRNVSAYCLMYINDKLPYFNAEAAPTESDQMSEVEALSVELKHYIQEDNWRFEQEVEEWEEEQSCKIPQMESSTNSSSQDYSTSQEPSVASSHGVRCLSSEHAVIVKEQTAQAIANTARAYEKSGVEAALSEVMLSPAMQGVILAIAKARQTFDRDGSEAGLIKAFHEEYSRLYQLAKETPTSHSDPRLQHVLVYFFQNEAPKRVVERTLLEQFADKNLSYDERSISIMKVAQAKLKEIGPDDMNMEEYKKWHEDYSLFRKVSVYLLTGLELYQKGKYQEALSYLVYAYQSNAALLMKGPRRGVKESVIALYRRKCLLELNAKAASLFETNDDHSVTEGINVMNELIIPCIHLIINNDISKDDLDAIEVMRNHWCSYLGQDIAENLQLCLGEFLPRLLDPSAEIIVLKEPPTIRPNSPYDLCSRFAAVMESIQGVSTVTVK

With `Oc1ccc(-c2nc3ccc(Cl)cn3c2NC2CCCCC2)cc1`, the IC50 is 23 µM. `Cc1cnc(CN2CCCC(c3ccc4cn[nH]c4n3)C2)cn1` (stereo unspecified): the IC50 is > 50 µM (inactive). As for `Cc1cc(NC(=O)c2[nH]nc3c2CCc2ccccc2-3)no1`, the IC50 is 6.37 µM. For the compound `COC(=O)C1C(c2ccc(OC)cc2)C2(C(=O)c3ccccc3C2=O)C2C=Cc3ccccc3N12` (stereo unspecified), the IC50 was > 50 µM (inactive). Turning to `CC(=O)Nc1ccc(Cc2nc(-c3ccc4c(c3)nc(C)c(=O)n4C3CCCC3)no2)cc1`, the IC50 was > 50 µM (inactive).

As to `O=C(CNC(=O)c1cc2ccccc2[nH]1)Nc1ccc2c(c1)OCCO2`, the IC50 is 45.9 µM. Consider `COc1ccccc1NS(=O)(=O)c1cccc(NC(=O)CCc2nc3ccccc3s2)c1`, for which the IC50 is 13.3 µM. To `NS(=O)(=O)c1ccc(NS(=O)(=O)c2ccc(NC(=O)Nc3ccc(Cl)cc3)cc2)cc1` belongs 3.85 µM; to `CCCc1nc2sc3c(NC4CCCCC4)ncnc3c2c2c1CCC2`, < 0.05 µM; to `Cc1ccc2[nH]c(=O)c(CN(CC3COCCO3)S(=O)(=O)c3ccc(F)cc3)cc2c1` (stereo unspecified), 13.5 µM. On to `CCN(CC)C(=O)CN1CCCC(c2ncncc2-c2cc(C)no2)C1` (stereo unspecified), for which the IC50 is > 50 µM (inactive). Take `CSc1nccc(-c2ccc(F)cc2)c1C#N`: the IC50 is 46.2 µM. To `Cc1ccc(C(=O)NCC(=O)Nc2nc3ccccc3[nH]2)c(C)c1` belongs 24.6 µM; to `COc1ccc(NC(=O)C2CCCN(S(=O)(=O)N3CCCCCC3)C2)cc1` (stereo unspecified), 21.8 µM; to `Cc1ccc(S(=O)(=O)N2CCC3(CC2)NC(=O)c2ccccc2N3)c(C)c1`, 31.3 µM. Take `CCOc1ccc(Nc2cc(C(=O)NCCc3ccccc3)c3ccccc3n2)cc1`: the IC50 was 26 µM.

In the case of `COc1ccc(NC(=O)c2ccc(Nc3nnc(C)c4ccccc34)cc2)cc1`, the IC50 was 22.5 µM.

In the case of `CCOc1ccc2[nH]c3c(=O)n(CCc4ccc(OC)cc4)cnc3c2c1`, the IC50 is 5.81 µM. For `COc1cccc(-c2cc(C(=O)Nc3cc(C)n(Cc4ccc(Cl)cc4)n3)no2)c1`, the IC50 was 40.5 µM. In the case of `CC(C(=O)Nc1ccccc1)n1cnc2nc(N3CCCCC3)ncc2c1=O` (stereo unspecified), the IC50 was > 50 µM (inactive). For the compound `CC(=O)c1ccc(NC(=O)c2nc3ccccc3nc2N2CCOCC2)cc1`, the IC50 is > 50 µM (inactive).

As for `CCC(C)(C)C1CCC2(CC1)N=C(N)Nc1nc3ccccc3n12` (stereo unspecified), the IC50 was 35.6 µM.

Consider `CCn1c(=O)c(=O)[nH]c2cc(C(=O)Nc3cccc(-c4csc(C)n4)c3)ccc21`, for which the IC50 was 1.99 µM.

For `CC1OC2CC(O)C1(O)C1=C2C(=O)c2c(O)c3c(c(O)c2C1=O)[C@H](C)O[C@H]1CC(=O)O[C@@H]31` (stereo partly specified), the IC50 was > 50 µM (inactive). Turning to `N#Cc1c(-c2cccs2)cc(-c2cccs2)[nH]c1=O`, the IC50 was > 50 µM (inactive).

For `COc1cc(N)c(Cl)cc1C(=O)OCC(=O)c1ccc2c(c1)OCCO2`, the IC50 was 6.12 µM. For `Cc1nnc(C(=O)Nc2ccc(C(=O)NCc3ccccc3C)cc2)s1`, the IC50 was 16.2 µM. For the compound `CCOc1ccc(NC(=O)Cn2cc(C(=O)c3ccc(Cl)cc3)c(=O)c3cc(OC)ccc32)cc1`, the concentration for half-maximal inhibition (IC50) is 4.32 µM. For the compound `COc1ccc2ncc3c(-c4ccc(C)cc4)nn(-c4ccc(F)cc4)c3c2c1`, the IC50 is 2.11 µM. In the case of `Cc1cc(-c2ccnc3c(C#N)cnn23)c(C)s1` it was 28.3 µM; in that of `CC(C(=O)NCc1ccc(F)cc1)n1cccc1C(=O)c1ccccc1` (stereo unspecified), > 50 µM (inactive). In the case of `Cc1noc(C)c1S(=O)(=O)Nc1ccc(C(=O)Nc2ccc3c(c2)OCCO3)cc1` it was 3.82 µM; in that of `O=C(NCc1ccc(F)cc1)N1CCC2(C1)Nc1cccnc1NC2=NCc1ccccc1` (stereo unspecified), > 50 µM (inactive).

Consider `COCC(C)Nc1ncc(-c2cnccn2)c(-c2ccc(C)s2)n1` (stereo unspecified), for which the IC50 is > 50 µM (inactive). Regarding `Cc1cc(C)c2cc3c(nc2c1)OC(=O)N(Cc1ccco1)C3`, the IC50 was 9.77 µM. In the case of `COc1ccc(NC(=O)C2[C@@H]3C(=O)N(C4CCCCC4)C(=O)[C@@H]3[C@H]3c4ccccc4C=CN23)cc1` (stereo partly specified), the IC50 was 36.9 µM.
